Reference: PubChem BioAssay AID504672 (Sanford-Burnham Center for Chemical Genomics, 2011)
Calls of active or inactive are those of the source. No stated cut-off is given here; in the data, active means IC50 below about 71 µM; inactive means the rest.

System: S. cerevisiae tim10 strain, luminescence counterscreen
Assay: TIM10 strain luminescence inhibitors – S. cerevisiae, uHTS hits, counter-screen for tim23-1 inhibitor project, dose response (AID 504672);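 further: yeast grew roughly 22 hours at 25 °C before the luminescence read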

SMILES	IC50
Cc1ccc2occ(/C=N/NC(=O)c3ccccc3Br)c(=O)c2c1	17.3 µM
Cc1csc2nc(O)c(C(=O)NCCCc3ccccc3)c(=O)n12	8.44 µM
Cc1cc(C(=O)CCl)c(C)n1CCc1ccc(Cl)cc1	11 µM
O=C(N/N=C/c1coc2ccc(Cl)cc2c1=O)c1cc(O)cc(O)c1	44.8 µM
CCOC(=O)c1cccc(OC(=O)CCNC(=O)c2ccc(Cl)cc2)c1	26.9 µM
O=C(N/N=C/c1ccc([N+](=O)[O-])s1)c1ccncc1	12.7 µM
O=C(/C(=C/O)N=Nc1ccccc1)c1ccco1	11 µM
O=C(Nc1ncc([N+](=O)[O-])s1)c1ccc2c(c1)OCO2	15.8 µM
NNC(=O)c1nc(-c2ccccc2)cc(-c2ccccc2)n1	12.5 µM
CCOC(=O)c1c(-c2ccccc2)oc2ccc(O)cc12	10.2 µM
O=C(Nc1ccc2oc(-c3ccccc3)nc2c1)c1cccs1	< 0.2 µM
CC(C)n1ncc2c(C(=O)NCC(=O)Nc3ccccc3Br)cc(C3CC3)nc21	27.8 µM
O=C(Nc1ccc2nc(-c3ccc(Br)o3)[nH]c2c1)c1cccs1	51 µM
C=C1CCc2c([nH]c3ccc(OCC(C)C)cc23)C1=O	24.3 µM
Cc1nc2nc(-c3cccs3)[nH]c2cc1Br	14.9 µM
CCCc1nc2c(c(=O)c3ccccc3n2C)c(=O)n1C1CCCCCC1	23.2 µM
Oc1ccc(Br)cc1/C=N/Nc1ccccn1	5.94 µM
O=C(N/N=C/c1ccco1)c1cc2ccccc2o1	22.2 µM
Cc1ccccc1OCCCSc1nc2ccccc2[nH]1	6.45 µM
C[C@@]12C(=O)Nc3ccc(Cl)cc3C(=O)N1[C@H]1c3ccccc3OC[C@@H]1[C@@H]2c1ccccc1	3.46 µM
O=[N+]([O-])c1ccccc1S(=O)(=O)Nc1cccc2cccnc12	13.9 µM
N#C/C(=C\c1ccc(OCc2ccccc2)cc1)C(N)=O	27.9 µM
CCCCn1c(N)c(N(CCC(C)C)C(=O)c2ccc3c(c2)OCO3)c(=O)[nH]c1=O	> 100 µM (inactive)
CN=c1scc(-c2cccs2)n1/N=C/c1ccc(O)c(O)c1O	11 µM
COc1cccc(Nc2nc(-c3ccccc3)nc3ccccc23)c1	7.48 µM

SMILES	IC50
Cc1ccc2nc(-c3ccc(N)cc3)sc2c1	17.4 µM
O=C1NC(=S)SC1=C1CCCCCC1	14.1 µM
O=C(Nc1cccc(Br)c1)C1CCCC1	14.1 µM
N#C/C(=C\c1ccc(O)cc1)c1nc2ccccc2o1	17.6 µM
Cc1cnc(NC(=O)c2sc(Nc3ccccc3)nc2N)o1	28 µM
O=C(Nc1ccccc1N(C(=O)c1ccco1)S(=O)(=O)c1cccs1)c1ccco1	19.4 µM
Cn1cccc1-c1nc2ccc(NC(=O)c3cccs3)cc2[nH]1	28.2 µM
CCOC(=O)c1cnc(-n2nc(C)cc2C)nc1NCCc1ccccc1	8.35 µM
CC1=CC(C)(C)N(C(=O)c2ccc(F)cc2)c2cc3c(cc21)OCO3	3.84 µM
CC1CCc2c(sc3nc(C(C)(C)C)nc(N4CCN(C(=O)CCl)CC4)c23)C1 (centres undefined)	23.3 µM
O=C(NCCCc1ccccc1)Nc1cccc(Cl)c1	5.13 µM
OCCOCCNc1ncnc2c1c(-c1ccccc1)cn2-c1ccccc1	11.7 µM
O=C(NC(=O)c1ccccc1F)OCc1ccc(Cl)cc1Cl	15 µM
Cn1c(C(=O)Nc2ccc3c(c2)OCCO3)cc2sccc21	7.59 µM
Cc1ccc(Nc2nc(Cl)c(C=O)s2)cc1Cl	3.45 µM
CC(C(Sc1ccccc1N)c1ccccc1)[N+](=O)[O-] (centres undefined)	5.26 µM
Cc1cc(C)nc(SCC(=O)c2cc3ccccc3oc2=O)n1	32.1 µM
COC(=O)c1ccc(NC(=O)c2nc(S(=O)(=O)Cc3cccc(C)c3)ncc2Cl)cc1	2.01 µM
O=C(Nc1ccc(-c2cn3ccccc3n2)cc1)c1cccs1	> 100 µM (inactive)
CCc1ccc2oc(-c3cc(N)ccc3Cl)nc2c1	17 µM
CCOC(=O)c1sc(=NC(=O)c2ccco2)n(C)c1C	46.5 µM
CN1C(=O)C(=Cc2ccccc2OS(=O)(=O)c2ccccc2)C(=O)N(C)C1=O	5.92 µM
O=C(CSc1ccccc1)N/N=C/c1ccccc1O	10.9 µM
COc1cc2c(cc1OC)/C(=C/c1ccc(Cl)cc1)C(=O)OC2	50.9 µM
O=C(Nc1ccc2nc(-c3ccc(Br)o3)[nH]c2c1)c1ccco1	6.75 µM

SMILES	IC50
O=C(COc1ccccc1)N/N=C/c1ccc([N+](=O)[O-])o1	10.8 µM
O=C(CSc1cccc[n+]1[O-])CSc1cccc[n+]1[O-]	6.94 µM
O=C(Nc1ccc(Nc2ccccc2)cc1)c1ccc(Cl)c([N+](=O)[O-])c1	10.8 µM
CCOC(=O)c1cccnc1SCc1cc(=O)n2ccccc2n1	> 100 µM (inactive)
N#C/C(=C\c1ccc(Cl)cc1)C(=O)Nc1cccnc1	24.3 µM
COc1ccc2c(c1)sc1nc(-c3ccccc3)cn12	20.5 µM
O=Cc1cnc2ccccc2c1-c1ccccc1	9.53 µM
Cc1ccc(SCC(=O)OCn2nnc3ccccc3c2=O)cc1C	15.6 µM
Cc1nc2scc(C)n2c(=O)c1S(=O)(=O)Nc1ccc(OC(F)(F)F)cc1	49.3 µM
O=C(c1cccnc1)C1Cc2ccccc2C1=O (centres undefined)	27.8 µM
COc1ccc(/C=C/C(=O)Nc2ccc3c(c2)CCC3)cc1OC	64.1 µM
COc1cc(/C=N/NC(=O)c2ccc(N)cc2)ccc1OC(=O)c1cccc(C)c1	7.44 µM
CSc1nnc(C)c(/C=C/NOCc2ccc(Cl)cc2)n1	5.56 µM
CCn1c(N2CCN(S(=O)(=O)c3ccc(OC)cc3)CC2)nc2ccccc21	58 µM
CC(C)c1nc(NCCO)c(C#N)c2c1CCCC2	18.5 µM
O=C(Nc1ccc(F)c(Cl)c1)c1ccccc1	5.55 µM
O=C(CSc1cccc[n+]1[O-])Nc1ccccc1Oc1ccccc1	17.7 µM
CCOC(=O)c1c(C)oc2c(F)c(F)c(F)c(F)c2c1=O	26.8 µM
COc1ccc(S(=O)(=O)CC(=O)c2cc3cccc(C)c3oc2=O)cc1	15.4 µM
CCOC(=O)c1c(N)sc(C(=O)Nc2ccccc2)c1C	2.25 µM
O=C(Nc1ccc(Oc2cccc3ccccc23)cc1)c1ccco1	8.83 µM
O=C(N/N=C/C=C\c1ccco1)c1cccs1	70 µM
COCCNC(=O)/C(C#N)=C/c1ccc(OCc2ccc(F)cc2)cc1	11.3 µM
Cn1c(/C(C#N)=C/c2ccncc2)nc2ccccc21	34.3 µM
CCOC(=O)Nc1ccc2c(c1)Nc1ccccc1S2	12.7 µM

SMILES	IC50
O=C(Nc1nc2ccccc2s1)C1CCCN1S(=O)(=O)c1ccc(Cl)cc1 (centres undefined)	49.3 µM
Cc1nc(-c2ccc(NC(=O)c3ccccc3)cc2)cs1	8.18 µM
O=c1cc(C(Cl)(Cl)Cl)oc2c1ccc1ccccc12	63.8 µM
O=C(N/N=C/c1coc2ccc(Cl)cc2c1=O)c1ccncc1	87.1 µM
Cc1ccc(-c2nnc(N3CCN(c4ccccn4)CC3)c3ccccc23)cc1	13.1 µM
CCN(CC)S(=O)(=O)c1ccc(C(=O)OCn2nnc3ccccc3c2=O)cc1	> 100 µM (inactive)
Cc1ccc(NC(=S)NC(=O)C2CC2)cc1Cl	8.83 µM
CSc1nnc(C(C)(C)C)c(=O)n1/N=C/c1ccccc1	56.6 µM
COCCNC(=O)/C(C#N)=C/c1ccc(OCc2ccccc2)cc1	16.6 µM
O=c1c2ccccc2nc(-c2ccc([N+](=O)[O-])cc2)n1O	4.86 µM
O=C1/C(=C/c2ccncc2)SC(=S)N1C1CCCCC1	27.4 µM
Cc1nc2ccccc2c(=O)n1/N=C/c1cc(Br)ccc1O	10.8 µM
Clc1nssc1=Nc1nncs1	2.6 µM
COn1c(=O)c(-c2cccs2)[n+]([O-])c2ccccc21	6.58 µM
O=c1c2ccccc2[nH]c(=S)n1CCN1CCC(=C(c2ccc(F)cc2)c2ccc(F)cc2)CC1	12.7 µM
Brc1ccc(OCc2nnnn2-c2ccccc2)cc1	11 µM
CC(C)Oc1cc(O)c2c(=O)c(-c3ccc(O)cc3)coc2c1	10.1 µM
C/C(=N\Nc1ccc([N+](=O)[O-])cc1)c1ccc(O)cc1	2.32 µM
O=C(N/N=C/C(Br)=C/c1ccccc1)c1ccccc1F	15.5 µM
N#C/C(=C\c1ccc(Cl)cc1)C(=O)NC1CC1	9.67 µM
O=C1NN=C(c2ccc(Br)cc2)CC1c1ccc(Cl)cc1 (centres undefined)	23.2 µM
c1ccc(N=Nc2cn[nH]c2-c2ccco2)cc1	20.8 µM
CCOC(=O)c1c(NC(=O)CSc2nnnn2-c2ccc(OC)cc2)sc(C)c1C	11.6 µM
CN(C)/C=C1/C=C(c2ccccc2)OC1=O	36.8 µM
Oc1ccc(Oc2ccc(Oc3ccc(O)cc3)cc2)cc1	30.4 µM

SMILES	IC50
C/C=C/c1ccc(OCCOc2cc(C=O)ccc2OC)c(OC)c1	16.8 µM
COc1cc(NC(=O)c2cccs2)ccc1NC(=O)c1ccccc1Cl	16.2 µM
Oc1ccccc1C1NN=C(c2ccccc2)S1 (centres undefined)	> 100 µM (inactive)
Cc1nn(CC(=O)Nc2nc3ccccc3s2)c(C)c1[N+](=O)[O-]	18.4 µM
COc1ccc(C(C[N+](=O)[O-])c2c(-c3ccccc3)cc3ccccn23)cc1OC (centres undefined)	21 µM
COc1ccc(C(=O)COC(=O)c2cncc(Br)c2)cc1	15.5 µM
O=C(N/N=C/c1ccc(Br)s1)c1c[nH]c2ccccc12	13.1 µM
O=C(NCCCc1ccccc1)c1c(O)nc2sccn2c1=O	4.09 µM
CC1(S(=O)(=O)O)CC(=O)c2ccccc2C1=O (centres undefined)	7.14 µM
Cc1csc2nc(O)c(C(=O)NCCC3=CCCCC3)c(=O)n12	3.43 µM
CC(C)(C)c1ccc(OCC(=O)NCc2ccco2)c(Br)c1	12.2 µM
Nc1cc([N+](=O)[O-])cc2oc(-c3ccccc3)cc12	23.9 µM
O=C(Nc1ccc(-c2ccc(N3CCCCC3)nn2)cc1)c1ccco1	5.82 µM
O=C1c2ccccc2-c2n[nH]c3cccc1c23	20.2 µM
CCOc1ccc(N=C(C)C2=C(O)c3ccccc3C2=O)cc1	26.4 µM
O=C(Nc1ccc(-c2cn3c(n2)SCC3)cc1)c1ccco1	38.3 µM
Cc1ccc(S(=O)(=O)n2ccc(OC(=O)c3cccs3)n2)cc1	8.32 µM
CC(C)(C)c1csc(NC(=O)c2ccc(Br)o2)n1	16.7 µM
Cc1ccc(-c2nn(-c3ccccc3)cc2NC(=O)CCl)cc1	26.7 µM
COc1cc(/C=C/[N+](=O)[O-])ccc1OC(=O)c1cc2ccccc2oc1=O	3.42 µM
O=C(Nc1nc(-c2cccs2)c(-c2ccccc2)s1)c1ccco1	28.6 µM
Brc1ccc(-n2cnc(-c3ccccc3)c2)cc1	17.4 µM
Cc1ccc2[nH]cc(C(=O)CCl)c2c1	26.1 µM
CCc1ccc(NC(=O)/C(C#N)=C/c2ccncc2)cc1	12.6 µM
